Experiments:
Format in all cases: in vivo
[1] = tested on: Erysiphe graminis f. sp. tritici; experiment: Test A: wheat powdery mildew, preventive spray on wheat seedlings, visual disease rating
Source text: (§1) General protocol for preparing test suspensions for Tests A-H: The test compounds were first dissolved in acetone in an amount equal to 3% of the final volume and then suspended at the desired concentration (in ppm) in acetone and purified water (50/50 mix) containing 250 ppm of the surfactant Trem® 014 (polyhydric alcohol esters). The resulting test suspensions were then used in tests A-H. Spraying a 200 ppm test suspension to the point of run-off on the test plants was the equivalent of a rate of 500 g/ha.
The test suspension was sprayed to the point of run-off on wheat seedlings. The following day the seedlings were inoculated with a spore dust of Erysiphe graminis f. sp. tritici (the causal agent of wheat powdery mildew) and incubated in a growth chamber at 20° C. for 8 days, after which time disease ratings were visually made.
(§2) Results for Tests A-H are given in Table A. In the table, a rating of 100 indicates 100% disease control and a rating of 0 indicates no disease control (relative to the controls). A dash (-) indicates no test results. All results are for compounds tested at 200 ppm except where the compound number is followed by “*” which indicates the compound was tested at 40 ppm.

[2] = tested on: Puccinia recondite f. sp. tritici; experiment: Test B: wheat leaf rust, preventive spray on wheat seedlings, visual disease rating
Source text: as §1
(§3) The test suspension was sprayed to the point of run-off on wheat seedlings. The following day the seedlings were inoculated with a spore suspension of Puccinia recondite f. sp. tritici (the causal agent of wheat leaf rust) and incubated in a saturated atmosphere at 20° C. for 24 h, and then moved to a growth chamber at 20° C. for 7 days, after which time disease ratings were visually made.
as §2

Septoria tritici = experiment: Test C: wheat leaf blotch, preventive spray on wheat seedlings, visual disease rating
Source text: as §1
as §3, with “Septoria” for “Puccinia recondite f. sp.”, “blotch)” for “rust)”, “48” for “24”, “and” for “and then”, “19 additional” for “7”
as §2

Septoria nodorum = experiment: Test D: wheat glume blotch, preventive spray on wheat seedlings, visual disease rating
Source text: as §1
as §3, with “Septoria nodorum” for “Puccinia recondite f. sp. tritici”, “glume blotch)” for “leaf rust)”, “48” for “24”
as §2

Alternaria solani = experiment: Test E: tomato early blight, preventive spray on tomato seedlings, visual disease rating
Source text: as §1
(§4) The test suspension was sprayed to the point of run-off on tomato seedlings. The following day the seedlings were inoculated with a spore suspension of Alternaria solani (the causal agent of tomato early blight) and incubated in a saturated atmosphere at 27° C. for 48 h, and then moved to a growth chamber at 20° C. for 5 days, after which time disease ratings were visually made.
as §2

Botrytis cinerea = experiment: Test F: tomato botrytis, preventive spray on tomato seedlings, visual disease rating
Source text: as §1
as §4, with “Botrytis cinerea” for “Alternaria solani”, “botrytis)” for “early blight)”, “in” for “in a”, “20°” for “27°”, “24°” for “20°”, “3 additional” for “5”
as §2

[3] = 200 ppm, 100 = 100% disease control, 0 = no control
[4] = 40 ppm (compound number followed by *)

Compound | Test A rating (% disease control) [1, 3] [%] | Test B rating (% disease control) [2, 3] [%] | Test C rating (% disease control) (Septoria tritici; [3]) [%] | Test D rating (% disease control) (Septoria nodorum; [3]) [%] | Test E rating (% disease control) (Alternaria solani; [3]) [%] | Test F rating (% disease control) (Botrytis cinerea; [3]) [%] | Test A rating (% disease control) [1, 4] [%] | Test B rating (% disease control) [2, 4] [%] | Test C rating (% disease control) (Septoria tritici; [4]) [%] | Test D rating (% disease control) (Septoria nodorum; [4]) [%] | Test E rating (% disease control) (Alternaria solani; [4]) [%] | Test F rating (% disease control) (Botrytis cinerea; [4]) [%]
CCOC(=O)c1cnc(C)c(-c2ccc(OC)cc2)c1-c1cc(OC)cc(OC)c1 [Compound 60] | 59 | 59 | 68 | 0 | 0 | 99 | – | – | – | – | – | –
COc1cc(OC)cc(-c2c(Cn3cccn3)cnc(C)c2-c2c(F)cc(F)cc2F)c1 [Compound 97] | 100 | 100 | 95 | 100 | 100 | 99 | – | – | – | – | – | –
COc1cc(OC)cc(-c2c(Cn3cncn3)cnc(C)c2-c2c(F)cc(F)cc2F)c1 [Compound 104] | 100 | 100 | 98 | 99 | 100 | 99 | – | – | – | – | – | –
COc1cc(OC)cc(-c2c(C)cnc(C)c2-c2c(F)cc(F)cc2F)c1 [Compound 129] | – | – | – | – | – | – | 99 | 100 | 99 | 60 | 66 | 99
CCC(O)(CC)c1cnc(C)c(-c2c(F)cc(F)cc2F)c1-c1cc(OC)cc(OC)c1 [Compound 98] | 86 | 92 | 92 | 0 | 9 | 93 | – | – | – | – | – | –
COc1cc(OC)c(Cl)c(-c2c(-c3ccccc3F)cnc(C)c2-c2c(F)cc(F)cc2F)c1Cl [Compound 136] | – | – | – | – | – | – | 0 | 74 | 40 | 0 | 0 | 48
C=C(C)c1cnc(CC)c(-c2ccccc2)c1-c1cc(OC)cc(OC)c1 [Compound 29] | – | – | – | – | – | – | 91 | 0 | 98 | 0 | 91 | 80
COc1ccc(-c2c(C)ncc(C(C)=O)c2-c2cc(OC)cc(OC)c2)cc1 [Compound 61] | 86 | 99 | 84 | 0 | 83 | 99 | – | – | – | – | – | –
Cc1cnc(C)c(-c2c(F)cccc2F)c1-c1ccc(Cl)cc1 [Compound 144] | – | – | – | – | – | – | 0 | 0 | 0 | 0 | 0 | 45
COc1cc(OC)cc(-c2c(C(C)=O)cnc(C)c2-c2c(F)ccc(F)c2F)c1 [Compound 68] | 100 | 99 | 88 | 0 | 99 | 99 | – | – | – | – | – | –
COc1cc(OC)cc(-c2c(C(C)O)cnc(C)c2-c2c(F)ccc(OC)c2F)c1 (stereo not drawn) [Compound 116] | – | – | – | – | – | – | 94 | 89 | 95 | 0 | 99 | 99

From patent US20110092544A1, “FUNGICIDAL PYRIDINES” (E.I. DU PONT DE nemours and company, priority 2008, published 2011)
